Source: ChEMBL document CHEMBL3045912, “Prediction of fungicidal activities of rice blast disease based on least-squares support vector machines and project pursuit regression” (2008)

These molecules were tested on Pyricularia grisea (assay: Fungicidal activity against Magnaporthe grisea in rice seedlings assessed as area of infection on leaves treated 24 hr prior to spore inoculation measured 5 days after the fungal challenge).
Assay type: functional

CCc1ccc(NC(=O)Cc2cs/c(=N/c3ccc([N+](=O)[O-])cc3OC)n2C)cc1 and CCc1ccc(NC(=O)Cc2cs/c(=N\c3ccc(OC)cc3C)n2C)cc1 are within 0.2 log units of each other in “log(%)” value: 1.81 for the first, 2 for the second.

Cn1c(CC(=O)Nc2ccc(Cl)cc2)cs/c1=N/c1ccc(-c2ccccc2)cc1 and CCc1ccc(NC(=O)Cc2cs/c(=N/c3ccc(Cl)cc3)n2C)cc1 are within 0.2 log units of each other in “log(%)” value: 1.98 for the first, 2 for the second.

Going from CC(C)Oc1ccc(/N=c2/scc(CC(=O)Nc3ccc(C(F)F)cc3)n2C)cc1 to COc1ccc(/N=c2\scc(CC(=O)Nc3ccc(C(F)F)cc3)n2C)cc1, the “log(%)” value falls from 1.7 to 1.4.

First: Cn1c(CC(=O)Nc2ccc(OC(F)(F)F)cc2)cs/c1=N\c1cccc(C(F)(F)F)c1
Second: COc1ccc(NC(=O)Cc2cs/c(=N\c3cccc(C(F)(F)F)c3)n2C)cc1
The “log(%)” value of the first is lower: 1.7 for the first, 2 for the second.

Going from Cn1c(CC(=O)Nc2ccc(Br)cc2)cs/c1=N\c1cccc(F)c1 to CCCCc1ccc(NC(=O)Cc2cs/c(=N\c3cccc(F)c3)n2C)cc1, the “log(%)” value falls from 1.9 to 1.

Going from Cn1c(CC(=O)Nc2ccc(OC(F)(F)F)cc2)cs/c1=N\c1cccc(Br)c1 to Cn1c(CC(=O)Nc2ccc(OC(F)(F)F)cc2)cs/c1=N\c1ccc(F)cc1, the “log(%)” value falls from 1.7 to 0.9.

CCc1ccc(NC(=O)Cc2cs/c(=N\c3ccc(Br)cc3F)n2C)cc1 and CCc1ccc(NC(=O)Cc2cs/c(=N\c3ccc(C)cc3Cl)n2C)cc1 are the same in “log(%)” value: 2 for the first, 2 for the second.

Going from COc1ccc(NC(=O)Cc2cs/c(=N/c3ccc([N+](=O)[O-])cc3)n2C)cc1 to Cn1c(CC(=O)Nc2ccc([N+](=O)[O-])cc2)cs/c1=N/c1ccc(F)cc1, the “log(%)” value falls from 2 to 0.9.

CCCCCCc1ccc(/N=c2/scc(CC(=O)Nc3ccc(CC)cc3)n2C)cc1 and CCc1ccc(NC(=O)Cc2cs/c(=N/c3ccc(CC#N)cc3)n2C)cc1 are the same in “log(%)” value: 2 for the first, 2 for the second.

Going from CCOc1ccc(NC(=O)Cc2cs/c(=N\c3ccc(F)cc3F)n2C)cc1 to CCCCOc1ccc(NC(=O)Cc2cs/c(=N\c3cccc(F)c3)n2C)cc1, the “log(%)” value falls from 1.9 to 1.

First: COc1ccc(NC(=O)Cc2cs/c(=N\c3ccc(Cl)c(C(F)(F)F)c3)n2C)cc1
Second: COc1ccc(/N=c2/scc(CC(=O)Nc3ccc(OC(F)(F)F)cc3)n2C)cc1
The “log(%)” value of the first is higher: 2 for the first, 1.4 for the second.

First: COc1ccc(NC(=O)Cc2cs/c(=N\c3ccccc3C(C)C)n2C)cc1
Second: COc1ccccc1/N=c1\scc(CC(=O)Nc2ccc(OC(F)(F)F)cc2)n1C
The “log(%)” value of the first is higher: 1.9 for the first, 0.7 for the second.

First: CCCCOc1ccc(NC(=O)Cc2cs/c(=N/c3ccc(C(F)(F)F)cc3)n2C)cc1
Second: CC(C)c1ccc(NC(=O)Cc2cs/c(=N/c3ccc(C(F)(F)F)cc3)n2C)cc1
The “log(%)” value of the first is lower: 1 for the first, 1.8 for the second.

First: Cn1c(CC(=O)Nc2ccc(Oc3ccccc3)cc2)cs/c1=N/c1ccc(Oc2ccccc2)cc1
Second: Cn1c(CC(=O)Nc2ccc(Oc3ccccc3)cc2)cs/c1=N\c1cccc(Br)c1
The “log(%)” value of the first is higher: 1.4 for the first, 0.9 for the second.

Going from Cn1c(CC(=O)Nc2ccc(C(F)F)cc2)cs/c1=N\c1ccc(Br)cc1 to Cn1c(CC(=O)Nc2ccc([N+](=O)[O-])cc2)cs/c1=N/c1ccc(C#N)cc1, the “log(%)” value falls from 1.4 to 0.7.

Going from CCc1ccc(NC(=O)Cc2cs/c(=N/c3ccc(C(C)=O)cc3)n2C)cc1 to CCCCc1ccc(NC(=O)Cc2cs/c(=N\c3ccc(F)c(Cl)c3)n2C)cc1, the “log(%)” value falls from 2 to 1.3.
